In patent US11261201B2 (priority 2018, dated 2022):
≈ marks a conversion by molar mass, not a printed value. Counter-ions that a name gives are not always drawn. Like-named read-outs stand apart in the source and are kept apart here.

What was measured:
A. baumannii = assay: Gram negative MIC protocol (OD600, LB, 24 h); conditions: Acinetobacter baumannii, read-out: MIC A. baumannii LB Media, A. baumannii, LB media, 24 h, OD600
Experimental: (§1) Overnight bacterial cultures were grown in LB with no added antibiotics at 37° C. with shaking. A 1:1000 dilution of these cultures into LB was exposed to concentration gradients of compounds in 96-well plates (100 μL per well assay volume). Resulting plates were incubated at 37° C. for 24 h without shaking, and OD600 was measured at the end of the incubation. MICs were determined as the lowest concentrations at which OD600 remained at baseline.

H37RvMA = assay: Tuberculosis Alamar Blue/Resazurin assay (MIC); assay type: cell-based; conditions: Mycobacterium tuberculosis, H37RV, WT H37Rv MTB; read-out: WT H37Rv MTB Activity
E. coli = assay: Gram negative MIC protocol (OD600, LB, 24 h); conditions: Escherichia coli
Experimental: as §1

[1] = read-out: MIC E. coli delta-TolC LB Media, E. coli delta-TolC strain, LB media, 24 h, OD600
[2] = read-out: MIC WT E. coli LB Media, wild-type E. coli, LB media, 24 h, OD600

Row | SMILES | MIC (A. baumannii) [µM] | MIC (H37RvMA) [µM] | MIC (E. coli; [1]) [µM] | MIC (E. coli; [2]) [µM]
1 | CN(C)c1ccccc1CNCCC1CCCCC1 [B237, 2-((2-cyclohexylethylamino)methyl)-N,N-dimethylaniline hydrochloride] | > 300 | > 150 | 170 | > 300
2 | c1ccc(-c2cccc3ccccc23)c(CNCCC2CCCCC2)c1 [B238, 2-cyclohexyl-N-(2-(naphthalen-1-yl)benzyl)ethanamine hydrochloride] | 54 | 55 | 10 | > 300
3 | CCNC(=O)COc1ccccc1CNC(C)CC1CCCCC1 (stereo not shown) [B239] | > 150 | > 150 | 20 (≈ 6.65 µg/mL) | > 150
4 | CC(CC1CCCCC1)NCc1ccccc1OCc1nccs1 (stereo not shown) [B240] | > 150 | 150 (≈ 51.7 µg/mL) | 7 (≈ 2.41 µg/mL) | > 150
5 | Cc1cc(COc2ccccc2CNC(C)CC2CCCCC2)on1 (stereo not shown) [B241] | > 150 | > 150 | 4 (≈ 1.37 µg/mL) | 150 (≈ 51.4 µg/mL)
6 | CCCNC(=O)COc1ccccc1CNC(C)CC1CCCCC1 (stereo not shown) [B242] | > 150 | > 150 | 12 (≈ 4.16 µg/mL) | > 150
7 | CNC(=O)COc1ccccc1CNC(C)CC1CCCCC1 (stereo not shown) [B243] | > 150 | > 150 | 12 (≈ 3.82 µg/mL) | > 150
8 | CC(CC1CCCCC1)NCc1ccccc1OCc1cn2ccccc2n1 (stereo not shown) [B244] | 150 (≈ 56.6 µg/mL) | 150 (≈ 56.6 µg/mL) | 3 (≈ 1.13 µg/mL) | 91 (≈ 34.4 µg/mL)
9 | Cc1nonc1COc1ccccc1CNC(C)CC1CCCCC1 (stereo not shown) [B245] | 150 (≈ 51.5 µg/mL) | 150 (≈ 51.5 µg/mL) | 4 (≈ 1.37 µg/mL) | 150 (≈ 51.5 µg/mL)
10 | Cc1nc(COc2ccccc2CNC(C)CC2CCCCC2)oc1C (stereo not shown) [B246] | > 150 | 91 (≈ 32.4 µg/mL) | 12 (≈ 4.28 µg/mL) | > 150
11 | CC(CC1CCCCC1)NCc1ccccc1OCCCn1c(=O)[nH]c2ccccc21 (stereo not shown) [B247] | 91 (≈ 38.4 µg/mL) | > 150 | 2 (≈ 0.843 µg/mL) | 150 (≈ 63.2 µg/mL)
12 | CC(CC1CCCCC1)NCc1ccccc1OCc1ncnn1C (stereo not shown) [B248] | > 150 | > 150 | 20 (≈ 6.85 µg/mL) | > 150
13 | CCN(CC)CCOc1ccccc1CNC(C)CC1CCCCC1 (stereo not shown) [B249] | > 150 | > 150 | > 150 | > 150
14 | CC(CC1CCCCC1)NCc1ccccc1OCCN1CCOCC1 (stereo not shown) [B250] | > 150 | > 150 | 12 (≈ 4.33 µg/mL) | > 150
15 | CC(CC1CCCCC1)NCc1ccccc1OCCCO (stereo not shown) [B251] | 91 (≈ 27.8 µg/mL) | > 150 | 7 (≈ 2.14 µg/mL) | 91 (≈ 27.8 µg/mL)
16 | COC(=O)c1ccc(COc2ccccc2CNC(C)CC2CCCCC2)o1 (stereo not shown) [B252] | 150 (≈ 57.8 µg/mL) | 150 (≈ 57.8 µg/mL) | 4 (≈ 1.54 µg/mL) | > 150
17 | COc1ccccc1CNCCC1CCCCC1 [B253, 2-cyclohexyl-N-(2-methoxybenzyl)ethanamine hydrochloride] | > 150 | > 150 | 37 | 150
18 | NCc1ccccc1CNCCC1CCCCC1 [B254, N-(2-(aminomethyl)benzyl)-2-cyclohexylethanamine hydrochloride] | > 150 | > 150 | > 150 | > 150
19 | OCc1ccccc1CNCCC1CCCCC1 [B255] | > 150 | > 150 | 84 (≈ 20.8 µg/mL) | > 150
20 | CC(=O)Oc1ccccc1CNCCC1CCCCC1 [B256, 2-((2-cyclohexylethylamino)methyl)phenyl acetate] | > 150 | > 150 | 150 | > 150
21 | O=C(O)c1ccccc1CNCCC1CCCCC1 [B257, 2-((2-cyclohexylethylamino)methyl)benzoic acid hydrochloride] | > 150 | > 150 | 67 | > 150
22 | COC(=O)c1ccccc1CNCCC1CCCCC1 [B258, methyl 2-((2-cyclohexylethylamino)methyl)benzoate hydrochloride] | > 150 | > 150 | 100 | > 150
